The source made the active and inactive calls. The calls are words filed in the database; no cut-off is given here.
Key:
[1] = tested on: Mycobacterium tuberculosis; test: Reduction in incidence of Mycobacterium tuberculosis coinfection in AIDS patient at 100 mg administered intramuscularly once daily for 5 days measured 140 days postdose; assay type: functional, organism-based
Homo sapiens = test: Reduction in cumulative incidence of opportunistic infections in AIDS patient at 100 mg administered intramuscularly once daily for 5 days; assay type: functional, organism-based
[2] = tested on: Mycobacterium tuberculosis; test: Reduction in incidence of Mycobacterium tuberculosis coinfection in AIDS patient at 100 mg administered intramuscularly once daily for 5 days; assay type: functional; design: scale not given: the % may be the effect or the level left

SMILES: C[C@]12CC[C@H](O)C[C@@H]1CC[C@@H]1[C@@H]2CC[C@]2(C)C(=O)[C@H](Br)C[C@@H]12 [16.ALPHA.-BROMOEPIANDROSTERONE]
- Activity [1]: Active
- Activity (Homo sapiens): Active
- Activity [2]: 42.2%

Source: ChEMBL document CHEMBL1156414, “Safety and activity of the immune modulator HE2000 on the incidence of tuberculosis and other opportunistic infections in AIDS patients” (2007)
